# Results reported in patent publication US20110269828A1, “COMPOSITIONS AND METHODS FOR TREATING AND PREVENTING WEIGHT-RELATED DISORDERS IN COMPANION ANIMALS” (Hill's Pet Nutrition, Inc., priority 2008, published 2011).
# Legend:
# GSH:GSSG ratio = test: Change in GSH:GSSG ratio in blood cells of dogs consuming DL-alpha lipoic acid in an extruded food; assay type: in vivo, dog
# Description: (§1) 30 adult, random source, dogs were utilized for this study. Dogs were at least 10 months of age, not pregnant, not lactating and of reasonable body weight prior to start of test. Animals were randomized into 5 groups for dietary treatment with 3 males and 3 females per each group.
# All dogs were fed a control food (0 ppm dl-alpha-lipoic acid added) that met or exceeded all recommendations for nutrients as proposed by the American Association of Feed Control Officials (AAFCO 2000) during a 2 week prefeeding period (Table 2). Following the prefeeding period dogs were randomized into 5 treatment groups with one of the following dl-alpha lipoic acid target-inclusions (dry matter basis): 0 ppm, 150 ppm, 1500 ppm, 3000 ppm, 4500 ppm. In all diets, control and alpha lipoic acid, Vitamin E was added and was present at a level of 600-1000 International Units and Vitamin C was added at levels of 100-200 ppm.
# Blood was collected aseptically for complete blood count, and blood biochemistry analysis 2 weeks prior to start and again at […], 56, 84, 112, 140 and 168 days of the study. In addition, 15 ml of whole blood was collected for isolation of lymphocytes at day 0, 28 and 84 of the dietary intervention.
# Heparinized whole blood was layered onto a 50 ml Accuspin conical centrifuge tube (Sigma Chemical) and an equal volume of Phosphate buffered saline (PBS) was added. Samples were centrifuged at 700 g for 30 minutes without brake. The monocyte layer was harvested, transferred to a 15 ml conical centrifuge tube, resuspended in 1-3 ml of PB, and centrifuged as before (First wash). A second wash was performed as the first wash. Finally, cells were harvested and suspended in perchloric acid (10% w/v) and frozen at −70° C., until analysis.
# Samples were transferred from −70° C. freezer into a cooler with dry ice in it. Vials were centrifuged at 12,000 rpm for 5 minutes in a refrigerated centrifuge. An aliquot of supernatant for glutathione (GSH) analysis was transferred to a conical test tube.
# Derivatization of the acid soluble extracts was by the method of Reed and coworkers (Fariss et al) as modified by Jones (Jones et al)
# Briefly, 150 μL extract or external standards were added into a 1.5 ml Eppendorf tube followed by addition of 20μγ-Glu-Glu internal standard and 50 μL IAA added followed by mixing. The solution was adjusted to pH about 10 (purple color) by using KOH—KHCO3 working solution. Solutions were incubated 1 hr, under room temperature in the dark. Sanger's reagent was added at the same volume as of the total volume and the solution was incubated overnight (20 hrs) in the dark at room temperature.
# After incubation, the solution was centrifuged at 12000 rpm for 5 minutes with the supernatant transferred into another 1.5 ml eppendorf tube.
# Solvents and separation conditions were as described (Fariss, Jones). Levels of GSH and GSSG were quantified relative to authentic standards. Gamma-glutamyl-glutamate was used as an internal standard to assess derivatization efficiency.
# Comparison of values for clinical chemistry, hematology and body weights vs baseline were analyzed by way of paired t-test on SAS for windows with significance set at P<0.05. Means of values at each measured time point were separated by a one-way ANOVA with significance set at P<0.05. The difference in GSH:GSSG between day 84 and baseline were analyzed between groups by way of SAS for windows in a one-way ANOVA with significance set at P<0.05.
# dogs [1] = test: 6 month feeding study of dl-alpha-lipoic acid in dogs: body weight, physical examination, safety; assay type: in vivo
# Description: as §1
# All dogs were fed a control food (0 ppm dl-alpha-lipoic acid added) that met or exceeded all recommendations for nutrients as proposed by the American Association of Feed Control Officials (AAFCO 2000) during a 2 week prefeeding period (Table 2). […]
# Test foods were the sole source of nutrients except for water. […] After dogs were selected and initial body weights taken, a food dose was calculated for each dog based on the expected ME of the food. Initial food dose calculations were based on the maintenance energy requirement (MER) for the dog modified by a factor to account for normal activity as calculated by the following formula: […]
# Dogs were weighed weekly and had food doses adjusted as needed in order to feed enough food to maintain their optimal body weight. Optimal body weight was determined to be 3 on a 5 point scale. […] All measures of body weight and food intake were recorded. […]
# Comparison of values for clinical chemistry, hematology and body weights vs baseline were analyzed by way of paired t-test on SAS for windows with significance set at P<0.05. […]
# dogs [2] = test: Body composition (DEXA) of dogs over 90 days; assay type: in vivo, dog
# Description: 30 dogs were used to determine the effect of lipoic acid when compared to an AAFCO control food or a test food containing fish oil.
# Table 9 illustrates Dual Energy X-Ray Absorptiometry (DEXA) measurement for dogs after being fed a control diet compared with dogs fed a pet food including lipoic acid for 90 days. The measurement of body fat using DEXA is more accurate than body weight for assessing health. A dog can have a lot of muscle, but be considered “over-weight” by many height/weight charts. The opposite can also be true—a dog can have a lot of fat and little muscle and be “over-fat” but not overweight.
# plasma metabolites = test: Metabolomics: fold change in metabolites measured in the blood at day 30; assay type: in vivo, dog
# Description: Metabolomics: Plasma metabolites were analyzed and were compared as fold change relative to the control fed dogs.
# [3] = tested on: genes related to cartilage and energy metabolism; test: Differential gene expression profile in whole blood (canine 2 Affymetrix genechips); assay type: in vivo, dog
# Description: A differential gene expression profile was studied between an AAFCO control food, a food containing fish oil, and a food containing lipoic acid. At a minimum of 1.3 fold change, a list of 1212 genes was generated compared to the AAFCO control and 1896 genes compared to the food containing fish oil at d 30.
# RNA extraction: Total RNAs were isolated from whole blood samples using the PAXgene RNA isolation kit. All measurements were done with the canine 2 Affymetrix genechips. For statistical analysis, all measurements were normalized with RMA. All analysis was preformed using Partek. An ANOVA t-test was performed for genes that are differentially expressed between the control and test foods were selected based on p-value cutoff 0.1, fold change >+/−1.3.
# dogs [4] = test: Percentage of animals classifying genomically fat; assay type: in vivo, dog
# Description: Table 6 illustrates the percentage of dogs classified as genomically fat after being fed a control diet compared with dogs fed a control plus fish oil and a control plus lipoic acid for 30 days.
# [5] = tested on: type II collagen C-propeptide and carboxy-terminal crosslinked telopeptide fragment of type II collagen; test: Serum cartilage markers by ELISA; assay type: in vivo, dog; conditions: vs a similar food without lipoic acid, day 0 as covariate
# Description: Biomarker measurements: Serum cartilage markers were measured using ELISA based kits to determine concentrations of cartilage markers. Day 0 was used as a covariate in the analysis to adjust for baseline values.
# [6] = body composition over 90 days, dogs
# [7] = dogs fed a food containing lipoic acid
# [8] = day 30, day 0 values as covariate
# [9] = lipoic acid vs. control, cartilage metabolism
# [10] = lipoic acid vs. control, energy metabolism
# [11] = lipoic acid vs. fish oil, cartilage metabolism
# [12] = lipoic acid vs. fish oil, energy metabolism
smiles,measurement,setting,value
"O=C(O)CCCCC1CCSS1 (racemic) [Lipoic Acid, dl-alpha-lipoic acid]",Difference in GSH:GSSG ratio- day 0 to day 84 compared to baseline food,"GSH:GSSG ratio; 150 ppm inclusion in extruded food, mean +/- spread",70 +/− 20
same,Difference in GSH:GSSG ratio- day 0 to day 84 compared to baseline food,"GSH:GSSG ratio; 1,500 ppm inclusion in extruded food",24 +/− 7
same,Difference in GSH:GSSG ratio- day 0 to day 84 compared to baseline food,"GSH:GSSG ratio; 3,000 ppm inclusion in extruded food",10 +/− 4
same,Difference in GSH:GSSG ratio- day 0 to day 84 compared to baseline food,"GSH:GSSG ratio; 4,500 ppm inclusion in extruded food",50 +/− 36
same,Effect on GSH to GSSG ratio,GSH:GSSG ratio; chronic feeding in diet,improves the reduced glutathione (GSH) to oxidized glutathione (GSSG) ratio
same,Body weight,"dogs [1]; 4500 ppm inclusion group, change appeared to reverse by 6 months",some weight loss occurred initially
same,Chronic feeding in diet: safety,"dogs [1]; dog, in vivo",safe and effective
same,Change in weight,"dogs [2]; 90 day treatment period, vs control and control plus fish oil",greatest change in weight
same,Total Weight,dogs [2]; [6],"13,800 g"
same,Total fat,dogs [2]; [6],2788.3 g
same,Body fat,dogs [2]; [7],lost fat
same,Change in fat,"dogs [2]; over 90 days, dogs",-587.2 g
same,Change in weight,"dogs [2]; over 90 days, dogs",-637.5 g
same,Change in pyruvate blood levels,"plasma metabolites; 30 day treatment period, vs control and control plus fish oil",greatest change in pyruvate blood levels
same,Kidney markers in blood,"plasma metabolites; after 30 days, control plus lipoic acid",decreased kidney markers
same,"Fold change in pyruvate measured in the blood, Lipoic acid vs Control",plasma metabolites; [8],0.5379
same,"Fold change in pyruvate measured in the blood, Lipoic acid vs Fish oil",plasma metabolites; [8],0.6274
same,Plasma hydroxyproline,plasma metabolites; [7],reduced in plasma
same,Fold change 12-lipooxygenase,[3]; [9],−1.3
same,Fold change Chondroitan sulfate synthase 1,[3]; [9],1.4
same,Fold change Facilitated glucose transporter 9,[3]; [9],1.4
same,Fold change Prolyl hydroxylase alpha 1,[3]; [9],1.4
same,Fold change Prolyl hydroxylase alpha 2,[3]; [9],1.3
same,Fold change TIMP1,[3]; [9],1.3
same,Fold change chondroitan sulfate proteoglycan 2 (veriscan),[3]; [9],1.5
same,Fold change heparan sulfate N-deacetylase/N-sulfotransferase 2,[3]; [9],1.3
same,Fold change 5′ AMP alpha 1,[3]; [10],1.3
same,Fold change 5′ AMP beta 1,[3]; [10],1.3
same,Fold change 5′ AMP gamma 2,[3]; [10],1.4
same,Fold change Facilitated glucose transporter 1,[3]; [10],1.3
same,Fold change Facilitated glucose transporter 6,[3]; [10],1 .3
same,Fold change Fatty acid desaturase 1,[3]; [10],1.9
same,Fold change Hexokinase 3,[3]; [10],1.3
same,Fold change PDK4,[3]; [10],1.4
same,Fold change PPAR gamma,[3]; [10],1.3
same,Fold change Succinyl CoA ligase alpha,[3]; [10],1.3
same,Fold change 12-lipooxygenase,[3]; [11],−1.3
same,Fold change ADAMTS-2,[3]; [11],−1.3
same,Fold change ADAMTS-10,[3]; [11],−1.3
same,Fold change ADAMTS-16,[3]; [11],−1.3
same,Fold change Chondroitan sulfate synthase 1,[3]; [11],1.3
same,Fold change Facilitated glucose transporter 9,[3]; [11],1.4
same,Fold change Fibronectin 1,[3]; [11],1.4
same,Fold change Lysyl hydroxylase,[3]; [11],1.3
same,Fold change MMP2,[3]; [11],−1.3
same,Fold change MMP7,[3]; [11],−1.3
same,Fold change N-acetylgalactosaminyltransferase 1,[3]; [11],1.3
same,Fold change Transforming growth factor beta receptor 1,[3]; [11],1.3
same,Fold change chondroitan sulfate proteoglycan 2 (veriscan),[3]; [11],1.5
same,Fold change 5′ AMP alpha 1,[3]; [12],1.3
same,Fold change 5′ AMP beta 1,[3]; [12],1.3
same,Fold change 5′ AMP gamma 2,[3]; [12],1.5
same,Fold change Facilitated glucose transporter 1,[3]; [12],1.3
same,Fold change Facilitated glucose transporter 6,[3]; [12],1.4
same,Fold change Hexokinase 3,[3]; [12],1.3
same,Fold change PDK4,[3]; [12],1.6
same,Fold change PPAR gamma,[3]; [12],1.3
same,Fold change SREBP-1,[3]; [12],−1.3
same,Fold change Succinyl CoA ligase alpha,[3]; [12],1.3
same,Fold change Succinyl CoA ligase beta,[3]; [12],1.3
same,Fold change cAMP responsice element modulator,[3]; [12],1.3
same,Genomic resemblance to physically fat dogs,"dogs [4]; after a 30 day treatment period, control plus lipoic acid",genomically did not resemble physically fat dogs
same,Percentage of animals at d 30 that classified fat using genomic markers,"dogs [4]; d 30, dogs",0%
same,Change in carboxy-terminal crosslinked telopeptide fragment of type II collagen,[5],greater decrease
same,Change in type II collagen C-propeptide,[5],greater decrease
